Results taken from publication PMC10004634 (PLOS ONE, 2023).
Like-named read-outs stand apart in the source and are kept apart here.

Tests used:
Experiment in all cases: biochemical
Parameters in all cases: KINOMEscan scanMAX competition binding, DNA-tagged kinases, qPCR read-out, percent control at 300 nM
[1] = target: CSK (Homo sapiens, UniProt P41240)
[2] = target: T1, ICK (Homo sapiens, UniProt Q9UPZ9)
T1 construct: gene CILK1
T1 sequence (Q9UPZ9 1-632): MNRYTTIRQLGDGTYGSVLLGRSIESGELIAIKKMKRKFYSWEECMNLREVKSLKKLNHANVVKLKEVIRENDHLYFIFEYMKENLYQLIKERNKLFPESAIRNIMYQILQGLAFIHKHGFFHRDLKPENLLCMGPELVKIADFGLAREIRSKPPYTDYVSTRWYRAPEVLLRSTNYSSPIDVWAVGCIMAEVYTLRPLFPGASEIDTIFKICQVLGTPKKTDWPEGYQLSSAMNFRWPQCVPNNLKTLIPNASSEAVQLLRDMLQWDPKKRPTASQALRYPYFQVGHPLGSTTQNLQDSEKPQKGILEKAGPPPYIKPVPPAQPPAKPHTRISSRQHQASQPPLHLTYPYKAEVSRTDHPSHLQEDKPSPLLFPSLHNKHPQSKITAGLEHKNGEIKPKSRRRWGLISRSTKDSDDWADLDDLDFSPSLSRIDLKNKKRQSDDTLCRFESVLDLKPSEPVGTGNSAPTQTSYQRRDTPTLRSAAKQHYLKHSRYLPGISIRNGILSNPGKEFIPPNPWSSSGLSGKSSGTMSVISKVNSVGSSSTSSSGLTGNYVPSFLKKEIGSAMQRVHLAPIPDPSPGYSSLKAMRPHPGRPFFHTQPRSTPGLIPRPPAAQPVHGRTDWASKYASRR

[3] = target: STK16 (Homo sapiens, UniProt O75716)
Chain of STK16 (O75716 whole entry): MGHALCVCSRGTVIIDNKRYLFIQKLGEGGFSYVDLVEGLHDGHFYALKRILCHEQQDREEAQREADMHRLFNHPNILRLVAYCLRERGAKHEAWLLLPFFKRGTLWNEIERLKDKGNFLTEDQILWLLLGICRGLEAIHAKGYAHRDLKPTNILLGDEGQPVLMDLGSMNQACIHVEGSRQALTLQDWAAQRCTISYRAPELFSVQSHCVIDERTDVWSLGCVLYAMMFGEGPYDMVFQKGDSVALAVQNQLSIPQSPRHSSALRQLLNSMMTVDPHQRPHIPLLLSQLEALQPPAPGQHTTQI

[4] = target: STK33 (Homo sapiens, UniProt Q9BYT3)
Chain of STK33 (Q9BYT3 whole entry): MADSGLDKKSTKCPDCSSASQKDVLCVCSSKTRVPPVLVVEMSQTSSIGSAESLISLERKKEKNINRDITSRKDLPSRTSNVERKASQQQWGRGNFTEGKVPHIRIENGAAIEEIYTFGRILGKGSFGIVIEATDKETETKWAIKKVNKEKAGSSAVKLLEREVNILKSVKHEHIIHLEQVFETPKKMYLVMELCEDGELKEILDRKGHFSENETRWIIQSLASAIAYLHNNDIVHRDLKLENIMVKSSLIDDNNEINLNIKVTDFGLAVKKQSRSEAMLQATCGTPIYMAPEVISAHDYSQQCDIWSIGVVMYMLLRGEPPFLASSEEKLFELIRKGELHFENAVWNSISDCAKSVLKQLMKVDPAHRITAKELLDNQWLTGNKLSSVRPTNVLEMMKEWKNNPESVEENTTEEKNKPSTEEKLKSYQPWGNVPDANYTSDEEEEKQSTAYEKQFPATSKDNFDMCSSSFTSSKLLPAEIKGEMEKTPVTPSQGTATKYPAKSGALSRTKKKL

[5] = target: T2, TXK (Homo sapiens, UniProt P42681)
T2 sequence (P42681 1-527): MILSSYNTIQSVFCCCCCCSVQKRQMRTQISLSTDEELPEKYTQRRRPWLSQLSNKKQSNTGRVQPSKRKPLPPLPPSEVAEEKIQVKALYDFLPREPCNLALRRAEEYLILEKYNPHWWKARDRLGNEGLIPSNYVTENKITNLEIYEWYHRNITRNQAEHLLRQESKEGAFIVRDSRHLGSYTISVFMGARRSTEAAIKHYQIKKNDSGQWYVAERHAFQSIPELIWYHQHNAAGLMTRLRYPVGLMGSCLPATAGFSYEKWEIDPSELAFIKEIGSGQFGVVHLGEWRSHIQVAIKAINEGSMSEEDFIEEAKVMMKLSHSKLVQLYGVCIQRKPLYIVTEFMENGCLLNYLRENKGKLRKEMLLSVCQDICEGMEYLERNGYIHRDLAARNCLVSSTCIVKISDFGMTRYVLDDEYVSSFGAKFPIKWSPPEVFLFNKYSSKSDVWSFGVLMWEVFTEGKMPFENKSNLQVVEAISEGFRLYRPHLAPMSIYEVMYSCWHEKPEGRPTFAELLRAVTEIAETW

[6] = target: T3, ULK1 (Homo sapiens, UniProt O75385)
T3 sequence (O75385 1-1050): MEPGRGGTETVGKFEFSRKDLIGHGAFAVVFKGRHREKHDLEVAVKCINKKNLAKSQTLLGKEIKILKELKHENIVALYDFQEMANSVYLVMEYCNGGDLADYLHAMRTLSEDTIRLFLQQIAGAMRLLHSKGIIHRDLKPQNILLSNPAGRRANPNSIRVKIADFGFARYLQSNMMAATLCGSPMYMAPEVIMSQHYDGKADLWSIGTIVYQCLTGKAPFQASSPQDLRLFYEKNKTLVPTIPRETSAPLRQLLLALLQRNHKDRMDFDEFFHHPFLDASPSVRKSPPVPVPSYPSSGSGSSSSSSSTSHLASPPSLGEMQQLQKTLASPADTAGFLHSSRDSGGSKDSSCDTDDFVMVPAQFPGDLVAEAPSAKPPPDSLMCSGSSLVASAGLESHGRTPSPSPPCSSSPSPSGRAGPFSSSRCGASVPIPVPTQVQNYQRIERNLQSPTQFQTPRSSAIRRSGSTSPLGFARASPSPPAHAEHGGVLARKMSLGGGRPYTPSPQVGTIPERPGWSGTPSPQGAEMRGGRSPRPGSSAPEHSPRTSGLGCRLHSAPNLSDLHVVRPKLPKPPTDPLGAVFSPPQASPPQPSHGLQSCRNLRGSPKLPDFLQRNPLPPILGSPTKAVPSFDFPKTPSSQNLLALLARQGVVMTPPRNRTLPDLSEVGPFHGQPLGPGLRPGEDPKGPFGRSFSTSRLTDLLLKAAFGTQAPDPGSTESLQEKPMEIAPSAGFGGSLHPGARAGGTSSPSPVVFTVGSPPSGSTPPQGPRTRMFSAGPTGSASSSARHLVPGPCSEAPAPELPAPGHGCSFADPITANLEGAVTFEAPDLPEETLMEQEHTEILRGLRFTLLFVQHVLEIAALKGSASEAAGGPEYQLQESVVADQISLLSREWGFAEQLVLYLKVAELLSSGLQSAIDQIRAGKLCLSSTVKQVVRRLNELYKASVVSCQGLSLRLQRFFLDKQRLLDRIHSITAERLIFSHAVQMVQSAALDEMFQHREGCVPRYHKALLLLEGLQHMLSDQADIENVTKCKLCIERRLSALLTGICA

[7] = read-out: Percent control / Acalabrutinib
[8] = read-out: Percent control / Ibrutinib
[9] = read-out: Percent control / Tirabrutinib
[10] = read-out: Percent control / Zanubrutinib

Chain of CSK (P41240 whole entry): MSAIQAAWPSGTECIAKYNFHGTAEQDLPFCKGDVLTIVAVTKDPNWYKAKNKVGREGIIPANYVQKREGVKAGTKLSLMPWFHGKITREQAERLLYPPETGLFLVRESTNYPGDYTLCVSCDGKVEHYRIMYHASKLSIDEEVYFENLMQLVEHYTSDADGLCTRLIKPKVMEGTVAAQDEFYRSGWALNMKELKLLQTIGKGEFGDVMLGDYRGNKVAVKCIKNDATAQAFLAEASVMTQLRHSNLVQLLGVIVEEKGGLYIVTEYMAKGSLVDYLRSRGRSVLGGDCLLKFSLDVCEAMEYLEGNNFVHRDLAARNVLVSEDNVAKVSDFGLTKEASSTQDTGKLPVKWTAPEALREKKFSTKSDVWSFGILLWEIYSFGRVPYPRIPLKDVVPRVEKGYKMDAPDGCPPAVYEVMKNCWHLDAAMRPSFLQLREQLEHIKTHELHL

Compound: CC#CC(=O)N1CCC[C@H]1c1nc(-c2ccc(C(=O)Nc3ccccn3)cc2)c2c(N)nccn12 [Acalabrutinib]
- remaining binding at 0.3 µM [1, 7]: 85%
- remaining binding at 0.3 µM [2, 7]: 82%
- remaining binding at 0.3 µM [3, 7]: 86%
- remaining binding at 0.3 µM [4, 7]: 90%
- remaining binding at 0.3 µM [5, 7]: 43%
- remaining binding at 0.3 µM [6, 7]: 95%

Compound: C=CC(=O)N1CCC[C@@H](n2nc(-c3ccc(Oc4ccccc4)cc3)c3c(N)ncnc32)C1 [Ibrutinib]
- remaining binding at 0.3 µM [1, 8]: 1.4%
- remaining binding at 0.3 µM [2, 8]: 61%
- remaining binding at 0.3 µM [3, 8]: 98%
- remaining binding at 0.3 µM [4, 8]: 86%
- remaining binding at 0.3 µM [5, 8]: 0.4%
- remaining binding at 0.3 µM [6, 8]: 85%

Compound: CC#CC(=O)N1CC[C@@H](n2c(=O)n(-c3ccc(Oc4ccccc4)cc3)c3c(N)ncnc32)C1 [Tirabrutinib]
- remaining binding at 0.3 µM [1, 9]: 47%
- remaining binding at 0.3 µM [2, 9]: 60%
- remaining binding at 0.3 µM [3, 9]: 82%
- remaining binding at 0.3 µM [5, 9]: 38%
- remaining binding at 0.3 µM [6, 9]: 74%

Compound: C=CC(=O)N1CCC([C@@H]2CCNc3c(C(N)=O)c(-c4ccc(Oc5ccccc5)cc4)nn32)CC1 [Zanubrutinib]
- remaining binding at 0.3 µM [3, 10]: 100%
- remaining binding at 0.3 µM [4, 10]: 93%
- remaining binding at 0.3 µM [5, 10]: 14%
- remaining binding at 0.3 µM [6, 10]: 100%
